Results: patent US20170315129A1, “CANCER CELL DETECTION METHOD USING LIVING BODY-DERIVED CELLS OF BIOLOGICAL ORIGIN” (Hirosaki University, priority 2014, published 2017)
“Also recorded” adds a separate entry of the source.

Tested on: ascites cells obtained during an operation of a patient with ovarian cancer (serous adenocarcinoma)
Assay: Live-cell fluorescence imaging by the perfusion method, original ascites cells, ovarian cancer patient (Example 4)
Assay type: cell-based, human
Details: cancer cell cluster; perfusion 100 μM 2-NBDLG and 20 μM 2-TRLG for 5 minutes, imaged 10 minutes after switch to KRB; FIG. 7A/7B, 8D
Method: A surplus portion of the original ascitic fluid taken from the peritoneal cavity immediately after the start of laparotomy for ovarian cancer (serous adenocarcinoma) was added to a 50 mL centrifuge tube having 5 mL of the Hanks solution in advance. The obtained ascitic fluid suspension was checked for presence of fibrin with a toothpick, and then passed through a mesh to remove fat and impurities. Next, it was evenly dispensed into two 50 mL centrifuge tubes, and centrifuged at 1500 G for 2 minutes at room temperature. The supernatant of each of the two centrifuge tubes was then gently removed from the liquid surface down to 7.5 mL with an electric pipette, and then the rest was further removed with a dropper to leave 1 mL. The sedimented layer containing red blood cells and the like were present at the bottom of the centrifuge tube. A 1 mL portion was collected from the upper surface with a dropper without aspirating red blood cells from the sedimented layer to obtain an ascites cell suspension. • (2) Adhesion of Ascites Cells on Glass Plate by Centrifugation, and Method of Maintaining Cell Viability
The ascites cells were allowed to attach on a glass plate using a commercially available automated cell collecting system CF-12D (Sakura Finetek Japan Co., Ltd.). […]

Compound: O=C[C@@H](Nc1ccc([N+](=O)[O-])c2nonc12)[C@H](O)[C@@H](O)[C@@H](O)CO [2-NBDLG, 2-[N-(7-nitrobenz-2-oxa-1,3-diazole-4-yl)amino]-2-deoxy-L-glucose]
- fluorescence from 2-NBDLG (green wavelength region), after vs before application of fLG: shows fluorescence; also recorded: positive
